Test results from ChEMBL document CHEMBL3885881, “DrugMatrix”.

Species on record: Rattus norvegicus
Assay: DrugMatrix - Regimen: Daily Repeat
Type: toxicity, organism-based, Sprague-Dawley
Set-up: regimen Daily Repeat, gender Male, age 6-8 weeks
Settings: in vivo, po, route oral GAVAGE, vehicle .5 % CMC; for BASOPHIL / EOSINOPHIL / ERYTHROCYTE COUNT / HEMATOCRIT / HEMOGLOBIN / LEUKOCYTE COUNT / LYMPHOCYTE / MEAN CORPUSCULAR HEMOGLOBIN / MEAN CORPUSCULAR HEMOGLOBIN CONCENTRATION / MEAN CORPUSCULAR VOLUME / MONOCYTE / NEUTROPHIL / PLATELET COUNT: tissue Blood; for ALANINE AMINOTRANSFERASE / ALBUMIN / ALKALINE PHOSPHATASE / ASPARTATE AMINOTRANSFERASE / BLOOD UREA NITROGEN / CHLORIDE / CHOLESTEROL / CREATINE PHOSPHOKINASE / CREATININE / GLUCOSE / PHOSPHORUS / POTASSIUM / SODIUM / TOTAL BILIRUBIN / TOTAL PROTEIN: tissue Plasma
[1] = 0 mg/kg, 72 h, dose level Control, time 3 day
[2] = 0 mg/kg, 120 h, dose level Control, time 5 day
[3] = 570 mg/kg, 72 h, dose level High, time 3 day
[4] = 570 mg/kg, 120 h, dose level High, time 5 day

## COc1ccc2c(c1OC)C(=O)O[C@@H]2[C@H]1c2c(cc3c(c2OC)OCO3)CCN1C [NOSCAPINE]
[1]
  BASOPHIL: 0.68%
  EOSINOPHIL: 0.46%
  ERYTHROCYTE COUNT: 7.15 x10E6/uL
  HEMATOCRIT: 45.44%
  HEMOGLOBIN: 14.1 G/DL
  LEUKOCYTE COUNT: 9.78 x10E3/uL
  LYMPHOCYTE: 84.44%
  MEAN CORPUSCULAR HEMOGLOBIN: 19.72 pg
  MEAN CORPUSCULAR HEMOGLOBIN CONCENTRATION: 31 G/DL
  MEAN CORPUSCULAR VOLUME: 63.66 fL
  MONOCYTE: 2.14%
  NEUTROPHIL: 11.16%
  PLATELET COUNT: 1378.2 x10E3/uL
  ALANINE AMINOTRANSFERASE: 42.33 u/L
  ALBUMIN: 3.8 G/DL
  ALKALINE PHOSPHATASE: 388.17 u/L
  ASPARTATE AMINOTRANSFERASE: 68 u/L
  BLOOD UREA NITROGEN: 16.17 mg/dL
  CHLORIDE: 96.67 MEQ/L
  CHOLESTEROL: 71 mg/dL
  CREATINE PHOSPHOKINASE: 156.17 u/L
  CREATININE: 0.57 mg/dL
  GLUCOSE: 193.67 mg/dL
  PHOSPHORUS: 11.43 mg/dL
  POTASSIUM: 7 MEQ/L
  SODIUM: 140.33 MEQ/L
  TOTAL BILIRUBIN: 0.48 mg/dL
  TOTAL PROTEIN: 6.8 G/DL
[2]
  BASOPHIL: 1.47%
  EOSINOPHIL: 1%
  ERYTHROCYTE COUNT: 7.12 x10E6/uL
  HEMATOCRIT: 45.47%
  HEMOGLOBIN: 14.1 G/DL
  LEUKOCYTE COUNT: 11.38 x10E3/uL
  LYMPHOCYTE: 82.57%
  MEAN CORPUSCULAR HEMOGLOBIN: 19.82 pg
  MEAN CORPUSCULAR HEMOGLOBIN CONCENTRATION: 31.02 G/DL
  MEAN CORPUSCULAR VOLUME: 63.88 fL
  MONOCYTE: 2.2%
  NEUTROPHIL: 11.97%
  PLATELET COUNT: 1267 x10E3/uL
  ALANINE AMINOTRANSFERASE: 38 u/L
  ALBUMIN: 3.72 G/DL
  ALKALINE PHOSPHATASE: 391 u/L
  ASPARTATE AMINOTRANSFERASE: 65.83 u/L
  BLOOD UREA NITROGEN: 14.17 mg/dL
  CHLORIDE: 107.67 MEQ/L
  CHOLESTEROL: 61 mg/dL
  CREATINE PHOSPHOKINASE: 148.33 u/L
  CREATININE: 0.57 mg/dL
  GLUCOSE: 177.17 mg/dL
  PHOSPHORUS: 12.07 mg/dL
  POTASSIUM: 7.2 MEQ/L
  SODIUM: 151.5 MEQ/L
  TOTAL BILIRUBIN: 0.58 mg/dL
  TOTAL PROTEIN: 6.72 G/DL
[3]
  BASOPHIL: 0.35%
  EOSINOPHIL: 0.35%
  ERYTHROCYTE COUNT: 7.71 x10E6/uL
  HEMATOCRIT: 48.95%
  HEMOGLOBIN: 15.2 G/DL
  LEUKOCYTE COUNT: 9.57 x10E3/uL
  LYMPHOCYTE: 82.8%
  MEAN CORPUSCULAR HEMOGLOBIN: 19.7 pg
  MEAN CORPUSCULAR HEMOGLOBIN CONCENTRATION: 31.05 G/DL
  MEAN CORPUSCULAR VOLUME: 63.4 fL
  MONOCYTE: 3.35%
  NEUTROPHIL: 12%
  PLATELET COUNT: 1473 x10E3/uL
  ALANINE AMINOTRANSFERASE: 27.5 u/L
  ALBUMIN: 3.9 G/DL
  ALKALINE PHOSPHATASE: 381.5 u/L
  ASPARTATE AMINOTRANSFERASE: 56 u/L
  BLOOD UREA NITROGEN: 17.5 mg/dL
  CHLORIDE: 96 MEQ/L
  CHOLESTEROL: 131 mg/dL
  CREATINE PHOSPHOKINASE: 176 u/L
  CREATININE: 0.45 mg/dL
  GLUCOSE: 166 mg/dL
  PHOSPHORUS: 12.8 mg/dL
  POTASSIUM: 6.5 MEQ/L
  SODIUM: 140.5 MEQ/L
  TOTAL BILIRUBIN: 0.55 mg/dL
  TOTAL PROTEIN: 7.25 G/DL
[4]
  BASOPHIL: 1.17%
  EOSINOPHIL: 0.53%
  ERYTHROCYTE COUNT: 7.1 x10E6/uL
  HEMATOCRIT: 42.8%
  HEMOGLOBIN: 13.67 G/DL
  LEUKOCYTE COUNT: 9.28 x10E3/uL
  LYMPHOCYTE: 75.47%
  MEAN CORPUSCULAR HEMOGLOBIN: 19.27 pg
  MEAN CORPUSCULAR HEMOGLOBIN CONCENTRATION: 31.97 G/DL
  MEAN CORPUSCULAR VOLUME: 60.33 fL
  MONOCYTE: 2.07%
  NEUTROPHIL: 19.87%
  PLATELET COUNT: 1766.33 x10E3/uL
  ALANINE AMINOTRANSFERASE: 36 u/L
  ALBUMIN: 3.7 G/DL
  ALKALINE PHOSPHATASE: 318.5 u/L
  ASPARTATE AMINOTRANSFERASE: 57 u/L
  BLOOD UREA NITROGEN: 13.5 mg/dL
  CHLORIDE: 106 MEQ/L
  CHOLESTEROL: 100 mg/dL
  CREATINE PHOSPHOKINASE: 142 u/L
  CREATININE: 0.45 mg/dL
  GLUCOSE: 188 mg/dL
  PHOSPHORUS: 12.45 mg/dL
  POTASSIUM: 7 MEQ/L
  SODIUM: 149 MEQ/L
  TOTAL BILIRUBIN: 0.2 mg/dL
  TOTAL PROTEIN: 6.75 G/DL
